Experimental data published in US20180036270A1, “A METHOD OF PROTECTING AGAINST CARBONYL STRESS INDUCED ISCHEMIA-REPERFUSION INJURY IN THE DIABETIC BRAIN VIA ADMINISTRATION OF N-ACETYLCYSTEINE” (Board of Supervisors of Louisiana State University and …, priority 2015, published 2018).
Entries after “also recorded” stand apart in the source; their conditions may differ.

Experiments:
[1] = test system: STZ-treated diabetic mice, I/R brain injury; test: Middle cerebral artery occlusion-reperfusion (MCAoR) brain infarct area in diabetic mice; type: in vivo, mouse; conditions: 2 mM NAC in drinking water 1 or 3 weeks before MCAoR, 45 min ischemia, 24 h reperfusion
Protocol: Turning now to FIGS. 1A-1C, a brief description concerning the various components of the present invention will now be briefly discussed. As shown, ischemia/reperfusion (I/R) injury in control and diabetic brain was determined using the middle cerebral artery occlusion-reperfusion (MCAoR) model of Koizumi. MCA occlusion was for 45 min and reperfusion for 24 h. Diabetes model were: mice injected with streptozotocin (STZ) or Akita mice lacking the Insulin-2 gene which spontaneously developed diabetes in 4 wks. Results are mean±SE. NT=no treatment; Veh=citrate buffer; Veh+STZ=4 week post STZ. Ak—Akita. The post I/R infarct area is represented by the unstained (white) regions of left brain sections.
Turning to FIGS. 12A-12C, I/R injury in control and diabetic brain was determined using the middle cerebral artery occlusion-reperfusion (MCAoR) model of Koizumi. MCA occlusion was for 45 min and reperfusion for 24 h. Diabetes was induced with streptozotocin (STZ) and stroke was induced in 4-week diabetic mice. NAC (2 mM) was given in drinking water for 3 weeks. Results are mean±SE. Veh=citrate buffer; STZ=4 week post STZ. The post I/R infarct area is represented by the unstained (white) regions of left brain sections after staining with TTC.
Four-week-old male C57BL/6J mice, weighing 18-20 g, were purchased from Jackson Laboratory. […]

[2] = test system: cerebral microvessels of STZ diabetic mice; test: Light-dye induced thrombosis in cerebral arterioles and venules of STZ diabetic mice; type: in vivo, mouse
[3] = test system: human brain microvascular endothelial cell; test: Endothelial barrier permeability by transendothelial electrical resistance; type: cell-based; conditions: MG with NAC
Protocol: Moreover, treatment with 100 μM MG in rat thoracic aortic rings for 24 h decreases acetylcholine-induced vascular relaxation via a reduction in p-eNOS (Ser1177) and p-AMPKα (Thr172). MG can reduce endothelial angiogenesis through RAGE-mediated, ONOO(^−)-dependent and autophagy-induced VEGFR2 degradation. […] This is exacerbated by GSH synthesis inhibition and prevented by NAC. The enhanced MG concentration in diabetic patients can also directly contribute to the platelet dysfunction associated with diabetes. Platelet dysfunction is characterized by hyperaggregability and reduced thrombus stability via potentiating thrombin-induced platelet aggregation and dense granule release, but inhibiting platelet spreading on fibronectin and collagen. Given that endothelial dysfunction and enhanced platelet activation could promote stroke, these studies indicate that MG can contribute to ischemic brain injury.

[4] = test system: platelet-leukocyte aggregates (PLAs); test: Platelet-leukocyte aggregate formation in STZ diabetic mice; type: in vivo, mouse; conditions: 5 and 19 week diabetic mice; NAC 2 mM for 2 weeks
Protocol: Turning to FIGS. 25A-25D, the percent of circulating leukocytes forming aggregates with platelets at 5 weeks of diabetes is shown (FIG. 25A). Aggregate formation between platelets and leukocyte subpopulations include: lymphocytes (FIG. 25B), neutrophils (FIG. 25C) and monocytes (FIG. 25D). Non-diabetic (vehicle-treated (Veh)), diabetic (STZ) and diabetic mice treated with NAC (2 mM for 2 weeks) were assessed. Turning to FIGS. 26A-26D, the percent of circulating leukocytes forming aggregates with platelets at 19 weeks of diabetes is shown (FIG. 26A). Aggregate formation between platelets and leukocyte subpopulations include: lymphocytes (FIG. 26B), neutrophils (FIG. 26C) and monocytes (FIG. 26D). Non-diabetic (vehicle-treated (Veh)), diabetic (STZ) and diabetic mice treated with NAC (2 mM for 2 weeks) were assessed.

[5] = test system: brain protein carbonyl contents; test: Assay of brain protein carbonyls; type: in vivo, mouse; conditions: 2 week diabetic mice, NAC 1 week
Protocol: The extent of protein glycation was determined by measuring total protein carbonyl contents. Briefly, the brain homogenate was incubated with 10 mM of 2, 4-dinitro-phenylhydrazine (DNPH) in 2M hydrochloride acid (1:2 volume) for 1 h followed by precipitation with trichloroacetic acid (final concentration 10%). Following centrifugation, the precipitant was washed 3 times with ethanol-ethyl acetate (1:1) to remove free DNPH. The pellets were redissolved in 0.6 ml of 6 M guanidine hydrochloride solution containing 20 mM potassium phosphate (pH=2.3 adjusted with trifluoroacetic acid) at 37° C., and the insoluble materials were removed by centrifugation for 3 min at 11000 g. The absorbance was monitored at 366 nm, and protein carbonyl contents quantified using the extinction coefficient of 22000 M^−1 cm^−1.

[6] = test system: blood-brain barrier (BBB); test: Blood-brain barrier permeability by Evans Blue extrusion; type: in vivo, mouse; conditions: STZ mice, NAC 3 weeks
[7] = test system: diabetic mice with transient ischemic attacks; test: Thrombosis after transient ischemic attack (TIA) in diabetic mice; type: in vivo, mouse; conditions: diabetes+TIA mice given NAC

SMILES: CC(=O)N[C@@H](CS)C(=O)O [NAC, N-acetylcysteine]
- percent infarct area [1]: significantly attenuated; also recorded: protects the diabetic brain against injury induced by I/R
- thrombosis onset and cessation times in cerebral venules and arterioles ([2]; 6 and 20 week diabetic mice, NAC 2 mM in drinking water for 3 weeks): provided protection against the accelerated thrombosis in both types of vessels
- time to onset of thrombosis in brain microvessels ([2]; 20 week diabetic mice, NAC 2 mM in drinking water for 1 week): decreases the accelerated onset of thrombosis
- MG-induced endothelial barrier permeability [3]: prevented
- platelet-leukocyte aggregate (PLA) formation [4]: effectively normalized
- brain protein carbonyl contents [5]: highly effective in attenuating; also recorded: decreased significantly; also recorded: significantly attenuated
- leakage of Evans Blue (BBB permeability) [6]: significantly decreased
- thrombosis time [7]: some improvement
